Results from paper PMC10177510, “A Multicenter, Open-Label, Phase I/II Study of FN-1501 in Patients with Advanced Solid Tumors” (Cancers, 2023).

System: advanced solid tumors
Experiment: Anti-tumor activity in patients (RECIST best response, PFS, OS)
Format: in vivo, human
Experimental: Among 64 pts enrolled in the trial, 16 failed screening and 48 (75%) were treated with FN-1501 at one of the dose levels tested. Eligible pts were ≥18 years of age with (a) relapsed or refractory AML that had exhausted or was ineligible for therapeutic options, or with ≥5% blasts in the bone marrow according to World Health Organization (WHO) 2016 criteria; or (b) solid tumors evaluable per RECIST v1.1 that had exhausted (or were ineligible for) therapeutic options likely to convey clinical benefit. Other inclusion criteria included Eastern Cooperative Oncology Group (ECOG) performance status (PS) of <2 and life expectancy ≥3 months. Pts with a clinically controlled central nervous system (CNS) tumor or metastasis and adequate organ function were eligible to participate. Ongoing use of strong CYP3A inhibitors or inducers was exclusionary unless participants were willing and able to change to use of an equivalent medication without this profile. Other exclusion criteria included current or recent major surgical procedures, anticancer therapy (chemotherapy, immunotherapy), biologic, live virus vaccine, or investigational therapy within 21 days prior to initiation of the study treatment. For patients in the AML cohort, acute promyelocytic leukemia (APML), chronic myelogenous leukemia in blast crisis (BCR-ABL), or active CNS leukemia were exclusionary.
Descriptive statistics were used for all safety, PK, and efficacy parameters. Data were summarized using descriptive statistics (number of pts, mean, median, standard deviation, minimum, and maximum) for continuous variables and using frequencies and percentages for discrete variables. Time-to-event variables were summarized using Kaplan–Meier methods and figures for the estimated median time.

## CN1CCN(Cc2ccc(NC(=O)c3[nH]ncc3Nc3ncnc4[nH]ccc34)cc2)CC1 [FN-1501]
40 mg/day, N = 4, ITT
  Progressive Disease, best RECIST response, n (%): 1 (25)
  Stable Disease, best RECIST response, n (%): 1 (25)
54 mg/day, N = 3, ITT
  Complete Response, best RECIST response, n (%): 0
  DCR: 0.0%
  Landmark Progression Free Survival Rate at 3 months (Table S6, Overall Survival): 66.7%
  Landmark Progression Free Survival Rate at 6 months (Table S6, Overall Survival): 0.0%
  Landmark Progression Free Survival Rate at 9 months (Table S6, Overall Survival): 0.0%
  Landmark Progression Free Survival Rate at 12 months (Table S6, Overall Survival): 0.0%
  Median overall survival: 3.2 months
  Median progression-free survival: 1.4 months
  ORR: 0.0%
  Partial Response, best RECIST response, n (%): 0
  Progression Free Survival Rate at 3 months: 0.0%
  Progression Free Survival Rate at 6 months: 0.0%
  Progression Free Survival Rate at 9 months: 0.0%
  Progression Free Survival Rate at 12 months: 0.0%
  Progressive Disease, best RECIST response, n (%): 2
  Stable Disease, best RECIST response, n (%): 0
72 mg/day, N = 3, ITT
  Complete Response, best RECIST response, n (%): 0
  DCR: 0.0%
  Median progression-free survival: 1.3 months
  ORR: 0.0%
  Partial Response, best RECIST response, n (%): 0
  Progression Free Survival Rate at 3 months: 0.0%
  Progression Free Survival Rate at 6 months: 0.0%
  Progression Free Survival Rate at 9 months: 0.0%
  Progression Free Survival Rate at 12 months: 0.0%
  Progressive Disease, best RECIST response, n (%): 3
  Stable Disease, best RECIST response, n (%): 0
96 mg/day, N = 5, ITT
  Complete Response, best RECIST response, n (%): 0
  DCR: 40.0%
  Landmark Progression Free Survival Rate at 3 months (Table S6, Overall Survival): 75.0%
  Landmark Progression Free Survival Rate at 6 months (Table S6, Overall Survival): 37.5%
  Landmark Progression Free Survival Rate at 9 months (Table S6, Overall Survival): 37.5%
  Landmark Progression Free Survival Rate at 12 months (Table S6, Overall Survival): 37.5%
  Median overall survival: 3.1 months
  Median progression-free survival: 2.7 months
  ORR: 0.0%
  Partial Response, best RECIST response, n (%): 0
  Progression Free Survival Rate at 3 months: 37.5%
  Progression Free Survival Rate at 6 months: 0.0%
  Progression Free Survival Rate at 9 months: 0.0%
  Progression Free Survival Rate at 12 months: 0.0%
  Progressive Disease, best RECIST response, n (%): 0
  Stable Disease, best RECIST response, n (%): 2 (40)
128 mg/day, N = 3, ITT
  Complete Response, best RECIST response, n (%): 0
  Median progression-free survival: 3.1 months
  ORR: 0.0%
  Partial Response, best RECIST response, n (%): 0
  Progression Free Survival Rate at 3 months: 66.7%
  Progression Free Survival Rate at 6 months: 0.0%
  Progression Free Survival Rate at 9 months: 0.0%
  Progression Free Survival Rate at 12 months: 0.0%
  Progressive Disease, best RECIST response, n (%): 1 (33)
  Stable Disease, best RECIST response, n (%): 1 (33)
170 mg/day, N = 4, ITT
  Complete Response, best RECIST response, n (%): 0
  DCR: 50.0%
  Median progression-free survival: 2.2 months
  ORR: 0.0%
  Partial Response, best RECIST response, n (%): 0
  Progression Free Survival Rate at 3 months: 33.3%
  Progression Free Survival Rate at 6 months: 33.3%
  Progression Free Survival Rate at 9 months: 33.3%
  Progression Free Survival Rate at 12 months: 0.0%
  Progressive Disease, best RECIST response, n (%): 1 (25)
  Stable Disease, best RECIST response, n (%): 2 (50)
226 mg/day, N = 4, ITT
  Complete Response, best RECIST response, n (%): 0
  DCR: 0.0%
  Landmark Progression Free Survival Rate at 3 months (Table S6, Overall Survival): 66.7%
  Landmark Progression Free Survival Rate at 6 months (Table S6, Overall Survival): 66.7%
  Landmark Progression Free Survival Rate at 9 months (Table S6, Overall Survival): 66.7%
  Landmark Progression Free Survival Rate at 12 months (Table S6, Overall Survival): 66.7%
  Median progression-free survival: 1.1 months
  ORR: 0.0%
  Partial Response, best RECIST response, n (%): 0
  Progression Free Survival Rate at 3 months: 0.0%
  Progression Free Survival Rate at 6 months: 0.0%
  Progression Free Survival Rate at 9 months: 0.0%
  Progression Free Survival Rate at 12 months: 0.0%
  Progressive Disease, best RECIST response, n (%): 1 (25)
  Stable Disease, best RECIST response, n (%): 0
1 patient, 40 mg/day, advanced endometrial cancer
  Duration of partial response: 4.2 months
Total, N = 48, ITT
  Complete Response, best RECIST response, n (%): 0
  DCR: 33.3%
  Landmark Progression Free Survival Rate at 3 months (Table S6, Overall Survival): 71.7%
  Median overall survival: 8.2 months
  Median progression-free survival: 1.8 months
  ORR: 2.1%
  Partial Response, best RECIST response, n (%): 1 (2)
  Progression Free Survival Rate at 3 months: 31.1%
  Progression Free Survival Rate at 6 months: 11.3%
  Progression Free Survival Rate at 9 months: 5.7%
  Progression Free Survival Rate at 12 months: 2.8%
  Progressive Disease, best RECIST response, n (%): 18
  Stable Disease, best RECIST response, n (%): 15 (31)
All doses
  Patients with progressive disease (PD) as best response by RECIST: 38%
  Patients with stable disease (SD) as best response by RECIST: 31%
  Remaining response-evaluable pts with PD: 67%
